We go through 2 compounds from patent US20060166994A1, “Method for treating renal failure” (priority 2003, published 2006).

A short description of data set [1]: Elimination half-life of the active metabolite (II) in man. The settings on record: human, in vivo.
Data set [2] in a line: 180-day mortality in heart failure patients with normal or impaired renal function (pooled levosimendan trials 3001021b and 3001030). Type of data set: in vivo, human. As to conditions: for 180-day mortality in levosimendan groups: heart failure patients, i.v. infusion 6 or 24 h. As to the method: In total, 701 heart failure patients from levosimendan trials 3001021b and 3001030 were included into the analysis to determine the effect of levosimendan on mortality in patients with normal or impaired renal function.
The study 3001021b compared levosimendan with dobutamine in a double-blind, parallel-group, randomised trial in 203 patients with low-output heart. Treatment with levosimendan (n=103) was started with a loading dose of 24 μg/kg infused over 10 minutes and followed by a continuous infusion of 0.1 μg/kg/min. For patients in whom the cardiac index had not increased by at least 30% compared with the baseline value at 2 hours, the dose was doubled to 0.2 μg/kg/min for levosimendan (n=69). Infusions were continued for totally 24 hours. Mortality was followed prospectively up to 31 days and retrospectively up to 180 days.
The study 3001030 evaluated the safety of levosimendan in patients with left ventricular failure after an acute myocardial infarction. The study was a placebo-controlled, double-blind, parallel-group, randomised, trial in 504 patients. Levosimendan was administered as a 10-minute loading dose followed by a continuous infusion for a total of 6 hours. The following doses were used: 6 μg/kg+0.1 μg/kg/min (n=103), 12 μg/kg+0.2 μg/kg/min (n=100), 24 μg/kg+0.2 μg/kg/min (n=99), 24 μg/kg+0.4 μg/kg/min (n=100) and similar placebo infusion (n=102). All-cause mortality was followed prospectively up to 14-days and retrospectively up to 180-days.
The patients combined from the above studies were classified according to their baseline renal function. The formula of Cockroft and Gault (Lafayette et al, 1997) was used to calculate the creatinine clearance (CLcr) values from the baseline serum creatinine) values as follows: [formula] [formula]

Broadly, the half-life is the time in which the quantity being followed falls by half. Take `CC(=O)Nc1ccc(C2=NNC(=O)C[C@H]2C)cc1` [active metabolite (II), (R)-N-[4-(1,4,5,6-tetrahydro-4-methyl-6-oxo-3-pyridazinyl)phenyl]acetamide]: in data set [1], the half-life was about 72 h.

For `CC1CC(=O)NN=C1c1ccc(NN=C(C#N)C#N)cc1` (single isomer, unassigned; (-)) [Levosimendan, (−)-enantiomer of [[4-(1,4,5,6-tetrahydro-4-methyl-6-oxo-3-pyridazinyl)phenyl]hydrazono]propanedinitrile], in data set [2] (180-day, comparison of normal and impaired renal function), the “Decrease in mortality versus control groups by renal function” value is given as “decrease in mortality was highest in patients with impaired renal function”. Also, the “180-day mortality in levosimendan groups” value is given as 18% in data set [2] (mild renal impairment (CLcr 50-80 ml/min)) and 15% in data set [2] (normal renal function (CLcr > 80 ml/min)).
